In publication PMC13229503, “Dissecting mechanisms of ligand binding and conformational changes in the glutamine-binding protein” (eLife, 2026):
Where two headings read alike, the source gives them in different places.

Assays:
GlnBP(111 C-192C) [1] = target: T1, GlnBP(111 C-192C) (Escherichia coli, UniProt P0AEQ3, G214C/V133C); test: ITC of ligand binding to refolded, unlabeled GlnBP(111C-192C)
T1 construct: made in house; host or cells: E. coli BL21-pLysS
Procedure: (§1) The ITC measurements were performed in a MicroCal PEAQ-ITC isothermal titration calorimeter (Malvern Instruments). The prediction ITC software ‘MicroCal PEAQ-ITC Control’ was employed for designing and conducting the experiments. Once the Kd value and the binding stoichiometry (N) were assigned as predefined values, the concentration of both the protein and the titrant (ligand) stock solutions could be calculated by the ‘design-experiment’ function on the software to get an optimal sigmoidal one-site binding curve. GlnBP concentration was assessed using the Nanophotometer (N60 Touch, Implen GmbH) with at least three reading repeats to get accurate determinations of concentration values. For all ITC measurements, the temperature was set at 25 °C with stirring speed at 750 rev/min. The GlnBPs solution (10 μM in PBS buffer pH 7.4, 300 μL) was manually loaded into the sample cell. The titrant (L-glutamine, 100 μM in PBS buffer, pH 7.4) was automatically loaded into the titration syringe and injected in the sample cell with a titration speed of 2 μL every 150 s and a total of 19 injections. As a control experiment, L-glutamine was titrated into the sample cell containing PBS buffer without GlnBPs. All the titration data were analyzed using the MicroCal PEAQ-ITC Analysis Software.

GlnBP(59 C-130C) = target: T2, GlnBP(59 C-130C) (Escherichia coli, UniProt P0AEQ3, T152C/T81C); test: ITC of ligand binding to refolded, unlabeled GlnBP(59C-130C)
T2 construct: made in house; host or cells: E. coli BL21-pLysS
Procedure: as §1

GlnBP(111 C-192C) [2] = target: T1, GlnBP(111 C-192C); test: Diffusion-based smFRET (µsALEX) ligand titration of doubly-labeled GlnBP(111C-192C); assay type: binding; conditions: millimolar ligand, GlnBP(111C-192C) and GlnBP(59C-130C), AF555/AF647
Procedure: The refolded GlnBP(111 C-192C) and GlnBP(59 C-130C) variants were labeled with commercial maleimide derivatives of AF555/AF647 or ATTO 532/ATTO 643 ([Gebhardt et al., 2021]), and then purified by SEC. […] First, the His-tagged protein was incubated in 10 mM DTT in PBS buffer for 30 min to reduce all oxidized cysteine residues. Subsequently, the protein was diluted 10 times with PBS buffer and immobilized on a Nickel Sepharose 6 Fast Flow resin (GE Healthcare). The resin was washed extensively with milliQ water followed by PBS buffer pH 7.4. To remove the excess of DTT, the resin was washed with PBS buffer. […]
Single-molecule μsALEX experiments were carried out at room temperature on a custom-built confocal microscope. […] In general, the 532 and 640 nm diode lasers operated at 60 and 25 μW, respectively (measured at the back aperture of the objective), unless stated otherwise. Fluorescence light was collected by the same objective, focused onto a 50 μm pinhole and separated into two spectral channels (donor and acceptor fluorescence) by a dichroic beamsplitter (H643 LPXR, AHF, Germany). Fluorescence emission was collected by two avalanche photodiodes (SPCM-AQRH-64, Excelitas) after additional filtering (donor channel: BrightLine HC 582/75 and acceptor channel: Longpass 647 LP Edge Basic, both from Semrock, USA). […]

GlnBP [3] = conditions: cited from earlier work
GlnBP [4] = tested on: GlnBP; design: method as in Berntsson et al., 2010; conditions: numerical fits of stopped-flow relaxation curves, Gln:GlnBP 1:1 and 2:1; ref Berntsson et al., 2010; cited from earlier work

T1 sequence (P0AEQ3 23-248 V133C/G214C): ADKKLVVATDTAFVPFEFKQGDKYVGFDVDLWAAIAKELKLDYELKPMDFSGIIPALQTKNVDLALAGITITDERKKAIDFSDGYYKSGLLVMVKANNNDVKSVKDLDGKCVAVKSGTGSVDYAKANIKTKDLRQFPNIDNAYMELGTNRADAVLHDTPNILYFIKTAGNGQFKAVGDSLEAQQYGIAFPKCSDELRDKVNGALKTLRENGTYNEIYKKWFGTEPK
T2 sequence (P0AEQ3 23-248 T81C/T152C): as the sequence (P0AEQ3 23-248 V133C/G214C) above, with T59C, C111V, T130C, C192G counted along it

Compound | Kd (GlnBP(111 C-192C) [1]) | Kd (GlnBP(59 C-130C)) | ligand-induced FRET shift (conformational change) (GlnBP(111 C-192C) [2]) | affinity (GlnBP [3]; arginine, ref Chen et al., 2020) | effective on-rate constant (GlnBP [4]) | affinity (GlnBP [3]; L-glutamine, ref Pistolesi and Tjandra, 2012, Su et al., 2007)
N=C(N)NCCC[C@H](N)C(=O)O [L-Arginine] | 421 ± 292 µM | 737 ± 133 µM | hardly any FRET shifts | millimolar affinity | – | –
NC(=O)CC[C@H](N)C(=O)O [L-glutamine] | – | – | – | – | about 10^8 M^–1s^–1 | sub-micromolar affinity
